# US20240226107A1, “UBIQUITIN-SPECIFIC PROTEASE 1 (USP1) INHIBITOR” (SIMCERE ZAIMING PHARMACEUTICAL CO., LTD., priority 2021, published 2024)
# How the values were obtained:
# [1] = Metabolic stability in vitro in rat hepatocytes; format: in vitro ADME; settings: read-out: Intrinsic clearance
# Protocol: The concentration of each compound in the reaction system was measured by LC/MS/MS to calculate the intrinsic clearance of the compounds to be tested, and evaluate the metabolic stability in vitro in rat hepatocytes.
# To the incubation plate, 198 μL of 0.5×10^6 cells/mL rat hepatocyte mixture and 2.0 μL of 100 μM compound to be tested or positive control were added to initiate reaction. Incubation was performed at 900 rpm at 37° C. […] Then the mixture was vortex-mixed for 5 min. […] Then 100 μL of supernatant of each compound was transferred to a 96-well sample plate, and 100 μL of purified water was added to dilute the sample. The resulting samples were quantified by ion chromatograms. The residual rate was calculated from peak areas of the compounds to be tested or the positive control. The slope k was determined using Microsoft Excel by linear regression of natural logarithm of the residual rate to the incubation time. The intrinsic clearance (in vitro CLint, μL/min/10^6 cells) was calculated from the slope value according to the following equation: […]
# [2] = Metabolic stability in vitro in human hepatocytes; format: in vitro ADME; settings: read-out: Intrinsic clearance
# Protocol: The concentration of each compound in the reaction system was measured by LC/MS/MS to calculate the intrinsic clearance of the compounds to be tested, and evaluate the metabolic stability in vitro in human hepatocytes.
# To the incubation plate, 198 μL of 0.5×10^6 cells/mL human hepatocyte mixture and 2.0 μL of 100 μM compound to be tested or positive control were added to initiate reaction. Incubation was performed at 900 rpm at 37° C. […] Then the mixture was vortex-mixed for 5 min. […] Then 100 μL of supernatant of each compound was transferred to a 96-well sample plate, and 100 μL of purified water was added to dilute the sample.
# The resulting samples were quantified by ion chromatograms. The residual rate was calculated from peak areas of the compounds to be tested or the positive control. The slope k was determined using Microsoft Excel by linear regression of natural logarithm of the residual rate to the incubation time. The intrinsic clearance (in vitro CLint, μL/min/10^6 cells) was calculated from the slope value according to the following equation: […]
# [3] = target: USP1 (Recombinant Human His6-USP1/His6-UAF1 Complex Protein) (Homo sapiens (Human), UniProt O94782); test: In vitro activity assay for USP1 (Ub-CHOP2-Reporter deubiquitination assay); format: biochemical; settings: 0.5 h incubation at room temperature, read-out: In vitro inhibitory activity of USP1 IC50
# Method in brief: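 His6-USP1/His6-UAF1 complex was mixed with compound in 20 mM Tris-HCl pH 8.0, 2 mM CaCl2, 2 mM β-mercaptoethanol and 0.05% CHAPS. Ub-CHOP2 reporter system plus substrate was added, then incubated 0.5 h at room temperature. IC50 came from a four-parameter logistic fit.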
# [4] = Solubility (PBS pH 7.4) of compounds from DMSO solution; format: physicochemical; settings: aqueous buffer, kinetic from dmso stock, 10 mM DMSO solution into PBS pH 7.4, 25° C., read-out: Calculated solubility
# Protocol: The solubility (PBS pH 7.4) of a compound to be tested was determined by LC/MS/MS. 6 μL of 10 mM DMSO solution of the compound to be tested was mixed with 194 μL of DMSO to prepare 300 μM compound solution. In 490 μL of water and acetonitrile (1:1) containing an internal standard, 5 μL of the solution and 5 μL of PBS pH 7.4 solution were mixed to prepare 3 μM standard concentration solution of the sample to be tested. The dilution factor of the standard solution can be adjusted according to the strength of response signals in LC/MS.
# To 485 μL of PBS pH 7.4 solution, 15 μL of 10 mM DMSO solution of the compound to be tested was added. […] After shaking, the stir bar was removed, and the sample was transferred to a filter plate and filtered using a vacuum manifold. In 490 μL of water and acetonitrile (1:1) containing an internal standard, 5 μL of filtrate and 5 μL of PBS pH 7.4 solution were mixed to prepare a solution to be tested. The dilution factor can be adjusted according to the solubility value and the strength of response signals in LC/MS.
# The resulting samples were determined by LC/MS/MS. The sample solubility was calculated from peak areas of the solution of the compound to be tested and the standard concentration solution, according to the following equation:
# [formula] • [Sample] is the solubility of the sample to be tested; • Area ratiosample is the ratio of the peak area of sample in the sample to be tested to the peak area of the internal standard; • INJ VOL STD is the injection volume of the standard concentration solution; • DFsample is the dilution factor of the solution of the sample to be tested; • [STD] is the concentration of the standard concentration solution; • INJ VOLsample is the injection volume of the solution of the sample to be tested; and • Area ratio STD is the ratio of the peak area of sample in the standard concentration solution to the peak area of the internal standard.
# [5] = Caco-2 permeability assay; format: in vitro ADME; settings: human, pH 7.4, Caco-2, 5 μM, 2 h
# Protocol: The apparent permeability coefficient (Papp) of the analytical drug was determined by liquid chromatography-mass spectrometry (LC-MS/MS) through a Caco-2 cell model.
# In this test example, Caco-2 cells were purchased from American Type Culture Collection (ATCC); 4-hydroxyethyl piperazine ethane sulfonic acid (HEPES) was purchased from Beijing Solarbio Science & Technology Co., Ltd.; Hanks' balanced salt solution (HBSS) and non-essential amino acids (NEAA) were purchased from ThermoFisher Scientific; penicillin, streptomycin, and trypsin/EDTA were purchased from Solarbio; fetal bovine serum (FBS) and DMEM medium were purchased from Corning; HTS-96-well Transwell plates and other sterile consumables were purchased from Corning; Millicell resistance measuring system was purchased from Millipore; Cellometer®K2 was purchased from Nexcelom Bioscience; Infinite 200 PRO microplate reader was purchased from Tecan; and MTS2/4 orbital shaker was purchased from IKA Labortechnik.
# Caco-2 cells were cultured in a culture flask. […] Cells at a confluency of 70-90% can be used to inoculate the Transwell. Prior to cell inoculation, 50 μL of cell culture medium was added to each well of the upper Transwell chamber and 25 mL of cell culture medium was added to the lower plate. The plate was incubated in an incubator (37° C., 5% CO2) for 1 h, and then inoculated with cells. After cell digestion, the cell suspension was pipetted and transferred to a round bottom centrifuge tube for centrifugation at 120 g for 5 min. […] The medium was changed as follows: transwell chambers were separated from the receiver plate, medium in the receiver plate was discarded, then medium in the Transwell chambers was discarded, and finally, 75 μL of fresh medium was added to each chamber, and 25 mL of fresh medium was added to the receiver plate.
# After approximately 14 days of culture, the Caco-2 cells reached the confluency and completed differentiation. In this case, the cells can be applied to permeability assay. The monolayer resistance was measured with a resistance meter (Millipore, USA) and the resistance per well was recorded. After the measurement, the Transwell plate was put back to the incubator. Calculation of resistance: measured resistance value (ohms)×membrane area (cm^2)=TEER value (ohm·cm^2); if TEER value <230 ohms·cm^2, the well can not be used for permeability assay.
# In 900 mL of purified water, 2.38 g HEPES and 0.35 g sodium bicarbonate were dissolved, then 100 mL of 10×HBSS was added and stirred well, pH was adjusted to 7.4, and finally, the resulting solution was filtered to obtain 1 L of transport buffer (HBSS, 10 mM HEPES, pH 7.4).
# A DMSO stock solution of 1 mM of compound to be tested was diluted with the transport buffer to obtain 5 μM test solution. The control compound digoxin or minoxidil was diluted with DMSO to 2 mM, and diluted with the transport buffer described above to 10 μM to obtain a control compound test solution. In addition, DMSO was also diluted with the transport buffer described above to a receiving end solution containing 0.5% DMSO.
# The Transwell plate was removed from the incubator. Monolayer cell membranes were rinsed twice with the transport buffer (10 mM HEPES, pH 7.4) and incubated at 37° C. for 30 min.
# The transport rate of the compound from the apical side to the basolateral side was determined. […]
# The transport rate of the compound from the basolateral side to the apical side was determined.
# PXR = PXR (Homo sapiens (Human), UniProt O75469); test: Potential for PXR activation in DPX2 cells; format: cell-based; settings: versus 20 μM rifampicin
# Protocol: DMSO solutions of the compounds to be tested and the control compound rifampicin solution were prepared, and diluted with Puracyp dosing medium (Puracyp, Cat. No: D-500-100) at 37° C. to respective test concentrations. The final concentrations of the compounds to be tested were 30 μM, 10 μM, and 1 μM, respectively, and the final concentration of rifampicin was 20 μM. The final concentration of DMSO in the test solution was 0.1%. In addition, 0.1% DMSO solution prepared with Puracyp dosing medium was used as a control.
# DPX2 cells were suspended in Puracyp Culture medium (Puracyp, Cat No.: C-500-100) at a cell density of 4.5×10^5 cell/mL. Then, the suspension was placed on a 96-well culture plate at 100 μL/well for incubation at 37° C. for 24 h. The medium in appropriate wells of the 96-well culture plate was replaced (three times per well) by 100 μL of solution of the compounds to be tested and a control compound solution. After replacement, the plate was incubated at 37° C. for 24 h. The medium was then replaced (three times per well) by a newly prepared test solution of the compounds to be tested and a rifampicin test solution, and the plate was incubated at 37° C. for 24 h.
# The medium in the 96-well culture plate was pipetted and washed twice with PBS. To each well, 50 μL of reagent diluted as required by CellTiter-Fluor™ Cell Viability Assay Kit (Promega, Cat. No.: G6082) was added, and incubated at 37° C. for 0.5 h. The 96-well plate was cooled to room temperature, and the fluorescence value of each well at 505 nm was measured in a fluorescence mode with a microplate reader at an excitation wavelength of 400 nm. Then, 50 μL of reagent prepared as required by One-Glo Luciferase Assay System (Promega, Cat. No.: E6120) was added to each well, and the mixture was incubated at room temperature for 5 min. The luminescence value of each well was read by using a lumen meter.
# Normalized luciferase activity was determined by RLU/RFU, and the RLU and RFU of the samples were mean values of duplicate wells, respectively.
# [formula] • Fold of activation: fold of activation of normalized luciferase; • RLUtest: measured luminescence value of test wells at each test dose of test compounds; • RLUvehicle: measured luminescence value of test wells when tested with the control DMSO solution; • RFUtest: measured fluorescence value of test wells at each test dose of test compounds; • RFUvehicle: measured fluorescence value of test wells when tested with the control DMSO solution.
# The percentage of positive control was calculated as follows:
# % Positive control=(fold activationtest compound−1)/(fold activationpositive control compound−1)×100% • % Positive control: percentage of PXR activation compared with 20 μM rifampicin activation at each test dose of test compounds; • Fold activationtest compound: fold of activation of normalized luciferase at each test dose of test compounds; • Fold activationpositive control compound: fold of activation of normalized luciferase of test compounds under 20 μM rifampicin.
# [6] = In vivo pharmacokinetics in SD rats; settings: male, rat, plasma
# Protocol: Using SD rats as test animals, drug concentrations in plasma of the rats at different times after intravenous injection and intragastric administration of the compounds provided in the present application were determined by LC/MS/MS. In vivo pharmacokinetic behaviors of the compounds provided in the present application in rats were investigated to evaluate pharmacokinetic characteristics of the compounds.
# There were three healthy 6-8-week-old male SD rats in each group.
# Intravenous administration: A certain amount of drug was weighed, and then 10 vol % N,N-dimethylacetamide, 33 vol % triethylene glycol, and 57 vol % physiological saline were added to prepare 1 mg/mL colorless clear and transparent liquid;
# Intragastric administration: A certain amount of drug was weighed, and then 0.5 wt % hydroxypropyl methylcellulose, 0.1 vol % tween 80, and 99.6 vol % physiological saline were added to prepare 1 mg/mL white suspension.
# After fasting overnight, the SD rats were dosed intravenously or intragastrically.
# The compounds provided in the present application were administered intravenously to the rats, then 0.2 mL of blood was collected from jugular veins respectively at 0.083, 0.25, 0.5, 1, 2, 4, 8, and 24 h after the administration, and placed in a test tube containing EDTA-K2. The test tube was then centrifuged at 4000 rpm at 4° C. for 5 min to separate plasma, and the plasma was stored at −75° C. Alternatively, the compounds provided in the present application were administered intragastrically to the rats, then 0.2 mL of blood was collected from jugular veins respectively at 0.25, 0.5, 1, 2, 4, 8, and 24 h after the administration, and placed in a test tube containing EDTA-K2. The test tube was then centrifuged at 3500 rpm at 4° C. for 10 min to separate plasma, and the plasma was stored at −75° C.
# The content of the compounds to be tested in rat plasma after intravenous administration or intragastric administration at different concentrations was determined: 30 μL of rat plasma at each time after administration was taken, 200 μL (50 ng/mL) of solution of internal standard dexamethasone in acetonitrile was added, then the resulting mixture was vortex-mixed for 30 s, and centrifuged at 4700 rpm at 4° C. for 15 min, the supernatant of plasma samples was diluted three times with water, and 2.0 μL of diluted solution was taken for LC-MS/MS.
# 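Wherever GI50 is given: MDA-MB-436 proliferation over 7 days with compound, viability read as ATP luminescence (CellTiter-Glo), inhibition relative to DMSO-only wells, day 0 signal as background, GI50 from four-parameter fit.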
# Chain of USP1 (Recombinant Human His6-USP1/His6-UAF1 Complex Protein) (O94782 whole entry): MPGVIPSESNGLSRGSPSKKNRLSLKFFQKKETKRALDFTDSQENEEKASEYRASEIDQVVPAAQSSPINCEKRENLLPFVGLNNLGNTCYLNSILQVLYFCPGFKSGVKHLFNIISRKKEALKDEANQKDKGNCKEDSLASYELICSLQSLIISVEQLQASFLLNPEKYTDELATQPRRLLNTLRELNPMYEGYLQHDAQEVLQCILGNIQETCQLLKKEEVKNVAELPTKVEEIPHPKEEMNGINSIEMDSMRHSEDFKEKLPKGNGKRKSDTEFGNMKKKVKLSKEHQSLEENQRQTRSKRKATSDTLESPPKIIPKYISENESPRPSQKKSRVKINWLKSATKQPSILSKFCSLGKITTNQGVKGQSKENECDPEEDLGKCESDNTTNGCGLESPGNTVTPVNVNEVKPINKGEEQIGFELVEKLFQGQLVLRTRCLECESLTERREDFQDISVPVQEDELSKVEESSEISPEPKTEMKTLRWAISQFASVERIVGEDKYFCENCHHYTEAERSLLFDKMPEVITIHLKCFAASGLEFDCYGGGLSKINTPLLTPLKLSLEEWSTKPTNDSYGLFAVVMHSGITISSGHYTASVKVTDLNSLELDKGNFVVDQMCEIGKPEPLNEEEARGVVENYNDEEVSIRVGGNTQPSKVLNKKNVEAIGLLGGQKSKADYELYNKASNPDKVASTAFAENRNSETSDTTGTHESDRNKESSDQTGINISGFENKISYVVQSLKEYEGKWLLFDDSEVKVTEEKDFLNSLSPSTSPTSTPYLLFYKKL
# Chain of USP1 (Recombinant Human His6-USP1/His6-UAF1 Complex Protein) (Q8TAF3 whole entry partner): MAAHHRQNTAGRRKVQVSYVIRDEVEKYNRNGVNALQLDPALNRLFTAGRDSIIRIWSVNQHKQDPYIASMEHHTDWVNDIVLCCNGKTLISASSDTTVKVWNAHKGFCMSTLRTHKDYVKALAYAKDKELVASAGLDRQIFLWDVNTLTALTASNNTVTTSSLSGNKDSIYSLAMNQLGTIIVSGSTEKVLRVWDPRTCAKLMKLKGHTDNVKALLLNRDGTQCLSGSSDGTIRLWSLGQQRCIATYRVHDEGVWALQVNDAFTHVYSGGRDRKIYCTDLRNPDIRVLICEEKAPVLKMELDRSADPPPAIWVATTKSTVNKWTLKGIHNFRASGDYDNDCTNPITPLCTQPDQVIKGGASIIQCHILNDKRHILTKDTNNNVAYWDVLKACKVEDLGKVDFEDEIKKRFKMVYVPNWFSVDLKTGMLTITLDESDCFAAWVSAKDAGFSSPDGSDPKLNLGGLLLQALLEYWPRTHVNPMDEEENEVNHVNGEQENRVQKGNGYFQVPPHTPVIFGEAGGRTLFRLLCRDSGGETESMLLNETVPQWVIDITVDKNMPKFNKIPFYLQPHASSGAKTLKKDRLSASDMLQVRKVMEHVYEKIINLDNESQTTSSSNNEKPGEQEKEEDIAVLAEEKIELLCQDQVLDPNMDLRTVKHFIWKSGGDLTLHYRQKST
# Chain of PXR (O75469 whole entry): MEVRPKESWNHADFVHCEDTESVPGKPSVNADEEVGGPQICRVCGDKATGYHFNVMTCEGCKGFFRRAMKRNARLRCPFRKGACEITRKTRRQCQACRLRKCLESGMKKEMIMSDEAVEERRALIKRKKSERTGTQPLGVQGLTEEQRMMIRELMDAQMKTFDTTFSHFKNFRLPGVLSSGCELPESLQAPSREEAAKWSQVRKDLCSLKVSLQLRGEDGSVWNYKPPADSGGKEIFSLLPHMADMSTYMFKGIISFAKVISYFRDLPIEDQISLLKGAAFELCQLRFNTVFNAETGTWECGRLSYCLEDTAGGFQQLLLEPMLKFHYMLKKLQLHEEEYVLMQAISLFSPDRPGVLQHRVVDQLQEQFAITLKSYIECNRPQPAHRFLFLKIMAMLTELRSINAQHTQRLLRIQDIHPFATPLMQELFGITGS
hepatocyte CLint at 1 μM [1] [µL/min/1e6 cells],hepatocyte CLint at 1 μM [2] [µL/min/1e6 cells],IC50 [3] [nM],GI50 (MDA-MB-436 cells) [nM],solubility at 2 h [4] [µM],"Papp A→B at 2 h, 5 μM ([5]; apical to basolateral) [×10⁻⁶ cm/s]","Papp B→A at 2 h, 5 μM ([5]; basolateral to apical) [×10⁻⁶ cm/s]",PXR activation (% Positive control) (PXR; 30 μM),"Vd ([6]; IV 2 mg/kg, read-out: Apparent volume of distribution Vss_obs) [L/kg]","clearance ([6]; IV 2 mg/kg, read-out: Clearance CL_obs) [mL/min/kg]","half-life ([6]; IV 2 mg/kg, read-out: Half-life period T1/2 (converted)) [h]","bioavailability ([6]; PO 5 mg/kg versus IV, read-out: Bioavailability F) [%]","Cmax ([6]; PO 5 mg/kg, read-out: Maximum plasma concentration Cmax) [ng/mL]",PXR activation (% Positive control) (PXR; 10 μM),Compound
6.4,4.85,14.3,19.9,,,,,,,,,,,"COc1ncnc(C2CC2)c1-c1ncc2c(n1)N(Cc1ccc(-c3nc(C(F)(F)F)cn3C)cc1)C(=O)C(C)(C)O2 [Compound 22, 2-(4-cyclopropyl-6-methoxypyrimidin-5-yl)-6,6-dimethyl-8-(4-(1-methyl-4-(trifluoromethyl)-1H-imidazol-2-yl)benzyl)-6H-pyrimido[5,4-b][1,4]oxazin-7(8H)-one]"
,4.26,19.9,53.2,88,,,,,,,,,,"COc1ncnc(C2CC2)c1-c1ncc2c(n1)N(Cc1ccc3c(c1)CCCn1cc(C(F)(F)F)nc1-3)CC(=O)N2C [Compound 45, 2-(4-cyclopropyl-6-methoxypyrimidin-5-yl)-5-methyl-8-((2-(trifluoromethyl)-6,7-dihydro-5H-benzo[c]imidazo[1,2-a]azepin-9-yl)methyl)-7,8-dihydropteridin-6(5H)-one]"
4,< 1,,,,7.5,17.3,32.8,4.1,11.4,6,47.2,235,,"COc1ncnc(C2CC2)c1-c1ncc2c(n1)N(Cc1ccc(-c3nc(C(F)(F)F)cn3C)cc1)C(=O)OC2(C)C [Compound 50, 7-(4-cyclopropyl-6-methoxypyrimidin-5-yl)-4,4-dimethyl-1-(4-(1-methyl-4-(trifluoromethyl)-1H-imidazol-2-yl)benzyl)-1,4-dihydro-2H-pyrimido[4,5-d][1,3]oxazin-2-one]"
,,23.2,59.6,,,,,,,,,,20.9,"COc1ncnc(C2CC2)c1-c1ncc2c(n1)N(Cc1ccc(-c3nc(C(F)(F)F)cn3C)cc1)C(=O)OC21CC1 [Compound 52, 7′-(4-cyclopropyl-6-methoxypyrimidin-5-yl)-1′-(4-(1-methyl-4-(trifluoromethyl)-1H-imidazol-2-yl)benzyl)spiro[cyclopropane-1,4′-pyrimido[4,5-d][1,3]oxazine]-2′(1′H)-one]"
